Target: T1, recombinant human ALX receptor (Homo sapiens, UniProt P25090)
T1 construct: expressed in transfected cells; host or cells: HEK293
T1 sequence (P25090 1-351): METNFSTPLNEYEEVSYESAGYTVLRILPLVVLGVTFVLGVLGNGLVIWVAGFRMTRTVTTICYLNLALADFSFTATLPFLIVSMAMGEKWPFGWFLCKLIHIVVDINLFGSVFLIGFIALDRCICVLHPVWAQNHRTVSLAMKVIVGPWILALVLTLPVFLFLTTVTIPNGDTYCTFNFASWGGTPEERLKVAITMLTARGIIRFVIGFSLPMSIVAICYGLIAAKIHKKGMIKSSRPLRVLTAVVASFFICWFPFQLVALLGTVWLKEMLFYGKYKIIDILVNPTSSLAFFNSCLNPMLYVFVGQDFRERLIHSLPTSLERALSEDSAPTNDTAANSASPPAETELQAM
Test: Intracellular calcium measurements (FLIPR), ALX receptor agonistic activity
Format: cell-based
Settings: HEK293-hALXR-Gα16 cells; normalized to WKYMVm 10 nM; read-out: EC50 (agonistic activity with respect to the ALX receptor)
Protocol: The ALX receptor agonistic activity of the compounds of formula (I) is determined in accordance with the following experimental method.
Cells expressing recombinant human ALX receptor and the G-protein Gα16 (HEK293-hALXR-Gα16) were grown to 80% confluency in Growing Medium (GM). Cells were detached from culture dishes with a cell dissociation buffer (Invitrogen, 13151-014), and collected by centrifugation at 1′000 rpm at rt for 5 min in Assay Buffer (AB) (equal parts of Hank's BSS (Gibco, 14065-049) and DMEM without Phenol Red (Gibco, 11880-028)). After 60 min incubation at 37° C. under 5% CO2 in AB supplemented with 1 μM Fluo-4 (AM) (Invitrogen, F14202) and 20 mM HEPES (Gibco, 15630-056), the cells were washed and resuspended in AB. They were then seeded onto 384-well FLIPR assay plates (Greiner, 781091) at 50,000 cells in 70 μl per well and sedimented by centrifugation at 1,000 rpm for 1 min. Stock solutions of test compounds were made up at a concentration of 10 mM in DMSO, and serially diluted in AB to concentrations required for activation dose response curves. WKYMVm (Phoenix Peptides) was used as a reference agonist. […] Changes in fluorescence were monitored before and after the addition of test compounds at lex=488 nm and lem=540 nm. […]

EC50: 4 nM
SMILES: Cc1ccc(C2(NC(=O)C3C(C(=O)NCCCCN4CCCC4)C4CCC3C43CC3)CC2)cc1 [Example 1, (5R)-N^5-(1-(p-tolyl)cyclopropyl)-(6R)-N^6-(4-(pyrrolidino)butyl)-(4S,7R)-[4,7-ethylene-spiro[2.4]heptane]-5,6-dicarboxamide]
